Legend:
Assay type in all cases: in vivo
[1] = system: Beet Armyworm (Spodoptera exigua, LAPHEG); experiment: Bioassay on Beet Armyworm (BAW), 128-well diet tray assay; conditions: Species BAW (Beet Armyworm), read-out: BAW (Biological Results, rating)
How it was run: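 Percent mortality, averaged across eight replicate wells, was scored after five to seven days at 25° C. under a 14:10 light-dark cycle. Each well's diet carried 50 μg/cm^2 of the dried test molecule and held one to five second instar larvae.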

[2] = system: Cabbage Looper (Trichoplusia ni, TRIPNI); experiment: Bioassay on Cabbage Looper (CL), 128-well diet tray assay; conditions: Trichoplusia ni; Species CL (Cabbage Looper); read-out: CL (Biological Results, rating)
How it was run: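 Test molecule is dissolved in 90:10 acetone-water and applied at 50 μg/cm^2 onto artificial diet, then dried. One to five second-instar larvae go into each of eight wells. Trays, sealed but vented, stay at 25° C., 14:10 light-dark, five to seven days, after which mortality is averaged.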

[3] = system: Yellow Fever Mosquito (Aedes aegypti, AEDSAE); experiment: Bioassay on Yellow Fever Mosquito (YFM), 96-well plate larval assay; conditions: Species YFM (Yellow Fever Mosquito)
How it was run: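 Each well was scored for mortality after 3 days at room temperature under a non-evaporative lid. Test molecules came from DMSO masters (4000 ppm stock) diluted with water/acetone 90:10 and dispensed into six replicate plates, which were then infested with roughly 1-day-old larvae in liver-powder water.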

Structure (SMILES) | pest or weed control at 50 µg/cm2 [1] | pest or weed control at 50 µg/cm2 [2] | YFM (Biological Results, rating) [3]
O=C(Nc1cc(F)c2cc[nH]c2c1)c1cc(NC(=O)C2C(c3cc(Cl)cc(Cl)c3)C2(Cl)Cl)ccc1Cl (stereo not drawn) [F173, 2-Chloro-5-(trans)-2,2-dichloro-3-(3,5-dichlorophenyl)cyclopropane-1-carboxamido)-N-(4-fluoro-1H-indol-6-yl)benzamide] | 50 to 100% | 50 to 100% | B (More than 0-Less than 80)
O=C(Nc1ccc2cc[nH]c2n1)c1cc(NC(=O)C2C(c3cc(Cl)cc(Cl)c3)C2(Cl)Cl)ccc1Cl (stereo not drawn) [F178, 2-Chloro-5-(trans)-2,2-dichloro-3-(3,5-dichlorophenyl)cyclopropane-1-carboxamido)-N-(1H-pyrrolo[2,3-b]pyridin-6-yl)benzamide] | 50 to 100% | 50 to 100% | B (More than 0-Less than 80)
O=C(Nc1ccc(F)cc1F)c1cc(NC(=O)[C@H]2[C@H](c3cc(Cl)cc(Cl)c3)C2(Cl)Cl)ccc1Cl [F185, 2-Chloro-5-((1R,3R)-2,2-dichloro-3-(3,5-dichlorophenyl)cyclopropane-1-carboxamido)-N-(2,4-difluorophenyl)benzamide] | 50 to 100% | 50 to 100% | B (More than 0-Less than 80)
O=C(Nc1ccc(F)cc1F)c1cccc(NC(=O)C2C(c3cc(Cl)cc(Cl)c3)C2(Cl)Cl)c1 (stereo not drawn) [F186, 3-(trans)-2,2-Dichloro-3-(3,5-dichlorophenyl)cyclopropane-1-carboxamido)-N-(2,4-difluorophenyl)benzamide] | 50 to 100% | 50 to 100% | B (More than 0-Less than 80)
O=C(Nc1ccc(F)cc1F)c1cc(NC(=O)C2C(c3cc(Cl)cc(Cl)c3)C2(Cl)Br)ccc1Cl (stereo not drawn) [F187, 5-(trans)-2-Bromo-2-chloro-3-(3,5-dichlorophenyl)cyclopropane-1-carboxamido)-2-chloro-N-(2,4-difluorophenyl)benzamide] | 50 to 100% | 50 to 100% | A (80-100)
N#Cc1cc(Cl)cc(C2C(C(=O)Nc3ccc(Cl)c(C(=O)Nc4ccc(F)cc4F)c3)C2(Cl)Cl)c1 (stereo not drawn) [F188, 2-Chloro-5-(trans)-2,2-dichloro-3-(3-chloro-5-cyanophenyl)cyclopropane-1-carboxamido)-N-(2,4-difluorophenyl)benzamide] | 50 to 100% | 50 to 100% | B (More than 0-Less than 80)
O=C(Nc1ccc(F)cc1)c1cc(NC(=O)[C@@H]2[C@@H](c3ccc(Cl)c(Cl)c3)C2(Cl)Cl)ccc1Cl [F208, 2-Chloro-5-((1S,3S)-2,2-dichloro-3-(3,4-dichlorophenyl)cyclopropane-1-carboxamido)-N-(4-fluorophenyl)benzamide] | 50 to 100% | 50 to 100% | A (80-100)
O=C(Nc1ccc(F)cc1)c1cc(NC(=O)[C@H]2[C@H](c3ccc(Cl)c(Cl)c3)C2(Cl)Cl)ccc1Cl [F209, 2-Chloro-5-((1R,3R)-2,2-dichloro-3-(3,4-dichlorophenyl)cyclopropane-1-carboxamido)-N-(4-fluorophenyl)benzamide] | 50 to 100% | 50 to 100% | A (80-100)
O=C(Nc1ccc(F)cc1F)c1cc(NC(=O)[C@@H]2[C@@H](c3ccc(Cl)c(Cl)c3)C2(Cl)Cl)ccc1Cl [F210, 2-Chloro-5-((1S,3S)-2,2-dichloro-3-(3,4-dichlorophenyl)cyclopropane-1-carboxamido)-N-(2,4-difluorophenyl)benzamide] | 50 to 100% | 50 to 100% | A (80-100)
O=C(Nc1ccc(F)cc1F)c1cc(NC(=O)[C@H]2[C@H](c3ccc(Cl)c(Cl)c3)C2(Cl)Cl)ccc1Cl [F211, 2-Chloro-5-((1R,3R)-2,2-dichloro-3-(3,4-dichlorophenyl)cyclopropane-1-carboxamido)-N-(2,4-difluorophenyl)benzamide] | 50 to 100% | 50 to 100% | A (80-100)
O=C(Nc1ccc(F)cc1)c1cc(NC(=O)C2C(c3cc(Cl)cc(Cl)c3)[C@@H]2Cl)ccc1Cl (stereo partly drawn) [F212, 2-Chloro-5-((2S)-2-chloro-3-(3,5-dichlorophenyl)cyclopropane-1-carboxamido)-N-(4-fluorophenyl)benzamide] | 50 to 100% | 50 to 100% | A (80-100)
O=C(Nc1ccc(F)cc1)c1cc(NC(=O)C2C(c3cc(Cl)cc(Cl)c3)[C@H]2Cl)ccc1Cl (stereo partly drawn) [F213, 2-Chloro-5-((2R)-2-chloro-3-(3,5-dichlorophenyl)cyclopropane-1-carboxamido)-N-(4-fluorophenyl)benzamide] | 50 to 100% | 50 to 100% | A (80-100)
O=C(Nc1ccc(F)cc1F)c1cc(NC(=O)C2C(c3cc(Cl)cc(Cl)c3)[C@@H]2Cl)ccc1Cl (stereo partly drawn) [F214, 2-Chloro-5-((2S)-2-chloro-3-(3,5-dichlorophenyl)cyclopropane-1-carboxamido)-N-(2,4-difluorophenyl)benzamide] | 50 to 100% | 50 to 100% | B (More than 0-Less than 80)
O=C(Nc1ccc(F)cc1F)c1cc(NC(=O)C2C(c3cc(Cl)cc(Cl)c3)[C@H]2Cl)ccc1Cl (stereo partly drawn) [F215, 2-Chloro-5-((2R)-2-chloro-3-(3,5-dichlorophenyl)cyclopropane-1-carboxamido)-N-(2,4-difluorophenyl)benzamide] | 50 to 100% | 50 to 100% | B (More than 0-Less than 80)
CC1(c2cc(Cl)cc(Cl)c2)C(C(=O)Nc2ccc(Cl)c(C(=O)Nc3ccc(F)cc3)c2)C1(Cl)Cl (stereo not drawn) [F251, 2-Chloro-5-trans-(2,2-dichloro-3-(3,5-dichlorophenyl)-3-methylcyclopropane-1-carboxamido)-N-(4-fluorophenyl)benzamide] | 50 to 100% | 50 to 100% | A (80-100)
CC1(c2cc(Cl)cc(Cl)c2)C(C(=O)Nc2ccc(Cl)c(C(=O)Nc3ccc(F)cc3F)c2)C1(Cl)Cl (stereo not drawn) [F252, 2-Chloro-5-trans-(2,2-dichloro-3-(3,5-dichlorophenyl)-3-methylcyclopropane-1-carboxamido)-N-(2,4-difluorophenyl)benzamide] | 50 to 100% | 50 to 100% | A (80-100)
Cc1cc(NC(=O)OC(C)(C)C)ccc1NC(=O)c1cc(NC(=O)[C@H]2[C@H](c3cc(Cl)cc(Cl)c3)C2(Cl)Cl)ccc1Cl [F275, tert-Butyl (4-(2-chloro-5-((1R,3R)-2,2-dichloro-3-(3,5-dichlorophenyl)cyclopropane-1-carboxamido)benzamido)-3-methylphenyl)carbamate] | 50 to 100% | 50 to 100% | A (80-100)

From patent publication US10219516B2, “Molecules having pesticidal utility, and intermediates, compositions, and processes, related thereto” (priority 2015, dated 2019)
